{"source": "patent US20240383870A1", "about": "“HETEROCYCLIC ALDEHYDE TRAPPING COMPOUNDS AND USES THEREOF” (Aldeyra Therapeutics, Inc., priority 2021, published 2024)", "format_in_all_cases": "in vivo", "key": {"KC": {"system": "KC", "assay": "Acute LPS-induced sepsis in C57BL/6 mice: KC cytokine detection assay", "conditions": "LPS-challenged mice, plasma at 6.5 h, unpaired t-test vs vehicle", "from_the_text": "FIG. 20 is a graph showing the results of a KC cytokine detection assay in samples collected from mouse subjects after administration of compounds of the present disclosure.\n(§1) The primary objective of this study was to collect plasma samples of lipopolysaccharide (LPS) challenged C57BL/6 mice after dose of test compounds to provide a cytokine profile as impacted by prophylactic treatments. This study models acute sepsis, which is a systemic inflammatory syndrome initiated by Gram-negative and Gram-positive bacteria and fungi which infect the lungs, abdomen, bloodstream, and renal or genitourinary tracts. Sepsis patients ultimately die of multiorgan failure which is caused by extensive tissue hypo-oxygenation due to ongoing microvascular leakage, disseminated intravascular coagulation, compromised energy production, and metabolic alterations. Sepsis is characterized by an early systemic inflammatory response phase featuring symptoms, such as tachycardia, fever, hyperventilation, and activation of the complement and coagulation cascades. However, it is now appreciated that a compensatory anti-inflammatory response phase follows, characterized by neuroendocrine-mediated immunosuppression. Since these processes are the result of interaction between cells of inflammation and organs, investigation of the treatment of this syndrome requires the use of intact animal models. The use of ten mice per group allows useful statistical modelling of the results.\n(§2) For the data shown in Table 2A, 103 mice (female, 18-22 gram, C57BL/6) were purchased from ENVIGO. The mice were housed in 20 cages of 5 mice per cage with 1 cage of 3 mice as extra. The cages had filter tops and autoclaved bedding, and the animals were placed in quarantine with daily inspection. The treatment groups are detailed in Table 2A below. 10 mice were included in each group. The mice were dosed by oral gavage (PO) at 10 ml/kg as per the table below. MC=methyl cellulose.\nas §2, with “2B, 185” for “2A, 103”, “37” for “20”, “cage.” for “cage with 1 cage of 3 mice as extra.”, “2B” for “2A”, “(P0)” for “(PO)”\n(§3) At T=0 h, the mice were dosed with one of the test compounds as described in the above table.\n(§4) At T=0.5 h, the mice were injected IP with 1.5 mg/kg […] (Sigma).\n(§5) At T=6.5 h, all mice were anesthetized and exsanguinated into pre-chilled EDTA-treated tubes. The blood was processed to plasma which was stored in labeled 0.5 polypropylene snap-cap tubes (0.5 mL Eppendorf Safe-Lock Tubes (Fisher Scientific) at −80° C.\n(§6) Preparation of vehicle: 1.0 gram of methyl cellulose (Sigma) was dissolved in 200 mL of water (USP purified) to make a solution of 0.5% methyl cellulose in water. Preparation of LPS solution: 6 mg of LPS (from Escherichia Coli 055:B5, Cat #L2880, Sigma Lot #057m4013) was dissolved in 20 ml of saline to give a LPS solution of 0.3 mg/ml. All mice were injected with 5 ml/kg (1.5 mg/kg) at the scheduled time by intraperitoneal injection.\n(§7) A 32-plex cytokine panel was obtained from Eve Technologies. Each cytokine was assessed based against a 7 point curve range in duplicate. The average of the two replicate analyses was used for statistics. Unpaired t-tests were performed using Excel™ contrasting vehicle against each treatment group. One star indicates P<0.05. Two stars indicates P<0.01. Three stars indicates P<0.001. Four stars indicates P<0.0001. Most, but not all, statistically significant results are indicated with star(s)."}, "M-CSF (CSF1)": {"system": "M-CSF (CSF1)", "assay": "Acute LPS-induced sepsis in C57BL/6 mice: M-CSF (CSF1) cytokine detection assay", "conditions": "LPS-challenged mice, plasma at 6.5 h, unpaired t-test vs vehicle", "from_the_text": "FIG. 24 is a graph showing the results of an M-CSF (CSF1) cytokine detection assay in samples collected from mouse subjects after administration of compounds of the present disclosure. M-CSF causes hematopoietic stem cells to differentiate into macrophages.\nas §1, §2\nas §2, with “2B, 185” for “2A, 103”, “37” for “20”, “cage.” for “cage with 1 cage of 3 mice as extra.”, “2B” for “2A”, “(P0)” for “(PO)”\nas §3, §4, §5, §6, §7"}, "IL-6": {"system": "IL-6", "assay": "Acute LPS-induced sepsis in C57BL/6 mice: IL-6 cytokine detection assay", "conditions": "200 mpk PO; LPS-challenged mice, plasma at 6.5 h; unpaired t-test vs vehicle", "from_the_text": "FIG. 11 is a graph showing the results of an IL-6 cytokine detection assay in samples collected from mouse subjects after administration of compounds of the present disclosure.\nas §1, §2\nas §2, with “2B, 185” for “2A, 103”, “37” for “20”, “cage.” for “cage with 1 cage of 3 mice as extra.”, “2B” for “2A”, “(P0)” for “(PO)”\nas §3, §4\n(§8) At T=6.5 h, all mice were anesthetized and exsanguinated into pre-chilled EDTA-treated tubes. […]\n(§9) A 32-plex cytokine panel was obtained from Eve Technologies. Each cytokine was assessed based against a 7 point curve range in duplicate. […]"}, "MCP-1(CCL2)": {"system": "MCP-1(CCL2)", "assay": "Acute LPS-induced sepsis in C57BL/6 mice: MCP-1(CCL2) cytokine detection assay", "conditions": "LPS-challenged mice, plasma at 6.5 h, unpaired t-test vs vehicle"}, "TNFα": {"system": "TNFα", "assay": "Acute LPS-induced sepsis in C57BL/6 mice: TNFα cytokine detection assay", "conditions": "200 mpk PO; LPS-challenged mice, plasma at 6.5 h; unpaired t-test vs vehicle", "from_the_text": "FIG. 29 is a graph showing the results of a TNFα cytokine detection assay in samples collected from mouse subjects after administration of compounds of the present disclosure.\nas §1\nas §2, with “cellulose. […]” for “cellulose.”\nas §9"}, "IL-3": {"system": "IL-3", "assay": "Acute LPS-induced sepsis in C57BL/6 mice: IL-3 cytokine detection assay", "conditions": "75 mpk PO; LPS-challenged mice, plasma at 6.5 h; unpaired t-test vs vehicle"}, "IL-12(p70)": {"system": "IL-12(p70)", "assay": "Acute LPS-induced sepsis in C57BL/6 mice: IL-12(p70) cytokine detection assay", "conditions": "75 mpk PO; LPS-challenged mice, plasma at 6.5 h; unpaired t-test vs vehicle", "from_the_text": "FIG. 16 is a graph showing the results of an IL-12(p70) cytokine detection assay in samples collected from mouse subjects after administration of compounds of the present disclosure.\nas §1\nas §2, with “The mice were dosed by oral gavage (PO) at 10 ml/kg as per the table below.” left out\nas §2, with “2B, 185” for “2A, 103”, “37” for “20”, “cage.” for “cage with 1 cage of 3 mice as extra.”, “2B” for “2A”, “(P0)” for “(PO)”\nas §3, §4, §5, §6\nA 32-plex cytokine panel was obtained from Eve Technologies. Each cytokine was assessed based against a 7 point curve range in duplicate. The average of the two replicate analyses was used for statistics. Unpaired t-tests were performed using Excel™ contrasting vehicle against each treatment group. One star indicates P<0.05. […]"}, "IL-13": {"system": "IL-13", "assay": "Acute LPS-induced sepsis in C57BL/6 mice: IL-13 cytokine detection assay", "conditions": "75 mpk PO; LPS-challenged mice, plasma at 6.5 h; unpaired t-test vs vehicle", "from_the_text": "FIG. 17 is a graph showing the results of an IL-13 cytokine detection assay in samples collected from mouse subjects after administration of compounds of the present disclosure.\nas §1, §2\nas §2, with “2B, 185” for “2A, 103”, “37” for “20”, “cage.” for “cage with 1 cage of 3 mice as extra.”, “2B” for “2A”, “(P0)” for “(PO)”\nas §3, §4, §5, §6\nA 32-plex cytokine panel was obtained from Eve Technologies. Each cytokine was assessed based against a 7 point curve range in duplicate. The average of the two replicate analyses was used for statistics. […]"}, "[1]": {"system": "leukemia inhibitory factor (LIF)", "assay": "Acute LPS-induced sepsis in C57BL/6 mice: leukemia inhibitory factor (LIF) cytokine detection assay", "conditions": "75 mpk PO; LPS-challenged mice, plasma at 6.5 h; unpaired t-test vs vehicle", "from_the_text": "FIG. 21 is a graph showing the results of a leukemia inhibitory factor (LIF) cytokine detection assay in samples collected from mouse subjects after administration of compounds of the present disclosure. LIF is an interleukin 6 class cytokine that affects cell growth by inhibiting differentiation.\nas §1, §2\nas §2, with “2B, 185” for “2A, 103”, “37” for “20”, “cage.” for “cage with 1 cage of 3 mice as extra.”, “2B” for “2A”, “(P0)” for “(PO)”\nas §3, §4, §5, §6, §9"}, "MIP2(CXCL2)": {"system": "MIP2(CXCL2)", "assay": "Acute LPS-induced sepsis in C57BL/6 mice: MIP2(CXCL2) cytokine detection assay", "conditions": "LPS-challenged mice, plasma at 6.5 h, unpaired t-test vs vehicle", "from_the_text": "FIG. 27 is a graph showing the results of a MIP2(CXCL2) cytokine detection assay in samples collected from mouse subjects after administration of compounds of the present disclosure.\nas §1\nas §2, with “The mice were dosed by oral gavage (PO) at 10 ml/kg as per the table below.” left out\nas §2, with “2B, 185” for “2A, 103”, “37” for “20”, “cage.” for “cage with 1 cage of 3 mice as extra.”, “2B” for “2A”, “(P0)” for “(PO)”\nas §3, §4, §8, §9"}, "IL-7": {"system": "IL-7", "assay": "Acute LPS-induced sepsis in C57BL/6 mice: IL-7 cytokine detection assay", "conditions": "100 mpk IP; LPS-challenged mice, plasma at 6.5 h; unpaired t-test vs vehicle"}, "IL-10": {"system": "IL-10", "assay": "Acute LPS-induced sepsis in C57BL/6 mice: IL-10 cytokine detection assay", "conditions": "100 mpk IP; LPS-challenged mice, plasma at 6.5 h; unpaired t-test vs vehicle"}, "IL-15": {"system": "IL-15", "assay": "Acute LPS-induced sepsis in C57BL/6 mice: IL-15 cytokine detection assay", "conditions": "100 mpk IP; LPS-challenged mice, plasma at 6.5 h; unpaired t-test vs vehicle"}, "MIP-1a(CCL3)": {"system": "MIP-1a(CCL3)", "assay": "Acute LPS-induced sepsis in C57BL/6 mice: MIP-1a(CCL3) cytokine detection assay", "conditions": "100 mpk IP; LPS-challenged mice, plasma at 6.5 h; unpaired t-test vs vehicle"}}}
{"smiles": "CC(C)(O)c1cc(F)c(F)cc1N", "note": "[Compound I-27, 2-(2-Amino-4,5-difluorophenyl) propan-2-ol]", "values": [{"measurement": "KC: significant cytokine change vs. vehicle", "setting": "KC; 200 mpk PO", "result": "* (One star indicates P<0.05)"}]}
{"smiles": "CC(C)(O)c1ncc(C(F)(F)F)cc1N", "note": "[Compound I-24, 2-(3-Amino-5-(trifluoromethyl)pyridin-2-yl) propan-2-ol]", "values": [{"measurement": "M-CSF: significant cytokine change vs. vehicle", "setting": "M-CSF (CSF1); 200 mpk PO", "result": "* (One star indicates P<0.05)"}]}
{"smiles": "COc1ccc2c(c1)NC(=O)[C@@H](CO)N2", "note": "[Compound I-7, (R)-3-(Hydroxymethyl)-7-methoxy-3,4-dihydroquinoxalin-2(1H)-one]", "values": [{"measurement": "IL-6: significant cytokine change vs. vehicle", "setting": "IL-6", "result": "* (One star indicates P<0.05)"}, {"measurement": "KC: significant cytokine change vs. vehicle", "setting": "KC; 200 mpk PO", "result": "* (One star indicates P<0.05)"}, {"measurement": "MCP-1: significant cytokine change vs. vehicle", "setting": "MCP-1(CCL2); 200 mpk PO", "result": "* (One star indicates P<0.05)"}, {"measurement": "M-CSF: significant cytokine change vs. vehicle", "setting": "M-CSF (CSF1); 200 mpk PO", "result": "*** (Three stars indicates P<0.001)"}, {"measurement": "TNFa: significant cytokine change vs. vehicle", "setting": "TNFα", "result": "* (One star indicates P<0.05)"}]}
{"smiles": "CC(C)(O)c1cc2occc2cc1N", "note": "[Compound I-22, 2-(5-Aminobenzofuran-6-yl) propan-2-ol]", "values": [{"measurement": "M-CSF: significant cytokine change vs. vehicle", "setting": "M-CSF (CSF1); 100 mpk PO", "result": "** (Two stars indicates P<0.01)"}]}
{"smiles": "CC(O)(c1ccc(C(F)(F)F)cc1N)C(F)(F)F", "note": "(centres unmarked) [Compound I-33, 2-(2-Amino-4-(trifluoromethyl)phenyl)-1,1,1-trifluoropropan-2-ol]", "values": [{"measurement": "IL-3: significant cytokine change vs. vehicle", "setting": "IL-3", "result": "** (Two stars indicates P<0.01)"}, {"measurement": "IL-12 (p70): significant cytokine change vs. vehicle", "setting": "IL-12(p70)", "result": "* (One star indicates P<0.05)"}, {"measurement": "IL-13: significant cytokine change vs. vehicle", "setting": "IL-13", "result": "** (Two stars indicates P<0.01)"}, {"measurement": "KC: significant cytokine change vs. vehicle", "setting": "KC; 75 mpk PO", "result": "** (Two stars indicates P<0.01)"}, {"measurement": "LIF: significant cytokine change vs. vehicle", "setting": "[1]", "result": "**** (Four stars indicates P<0.0001)"}, {"measurement": "MIP-2: significant cytokine change vs. vehicle", "setting": "MIP2(CXCL2); 75 mpk PO", "result": "** (Two stars indicates P<0.01)"}]}
{"smiles": "CC(O)(c1cccc2[nH]nc(N)c12)C(F)(F)F", "note": "(centres unmarked) [Compound I-9, 2-(3-amino-1H-indazol-4-yl)-1,1,1-trifluoropropan-2-ol]", "values": [{"measurement": "IL-7: significant cytokine change vs. vehicle", "setting": "IL-7", "result": "*** (Three stars indicates P<0.001)"}, {"measurement": "IL-10: significant cytokine change vs. vehicle", "setting": "IL-10", "result": "**** (Four stars indicates P<0.0001)"}, {"measurement": "IL-15: significant cytokine change vs. vehicle", "setting": "IL-15", "result": "** (Two stars indicates P<0.01)"}, {"measurement": "MCP-1: significant cytokine change vs. vehicle", "setting": "MCP-1(CCL2); 100 mpk IP", "result": "* (One star indicates P<0.05)"}, {"measurement": "MIP-1a: significant cytokine change vs. vehicle", "setting": "MIP-1a(CCL3)", "result": "** (Two stars indicates P<0.01)"}, {"measurement": "MIP-2: significant cytokine change vs. vehicle", "setting": "MIP2(CXCL2); 100 mpk IP", "result": "* (One star indicates P<0.05)"}]}
